According to patent publication US20050180932A1, “Ultraviolet absorption compositions” (AJINOMOTO CO. INC, priority 2002, published 2005):
Structures can show the parent of a compound that is named as a salt. One block for each compound: values may come before it.

Assays:
[1] = Wavelength at the maximum UV absorption and molar absorption coefficient (UV spectrometer, water/alcohol solution); type: physicochemical; settings: for Starting UV absorbent: Mol.Abs.Coef. (ε) / Amide-containing guanidine derivative: Mol.Abs.Coef. (ε): in M-1cm-1 (unit assumed); for Starting UV absorbent: Wavelength / Amide-containing guanidine derivative: Wavelength: UV absorption maximum
Protocol: The wavelength showing the maximum absorption was measured by means of a UV spectrometer in a water and/or alcohol solution of R^1COOH or its salt as mentioned in detail in the Examples.
Test 1. Wavelength at the Maximum Absorption

[2] = Solubility in water at room temperature; type: physicochemical

Starting UV absorbent: Mol.Abs.Coef. (ε) ([1]; 30% methanol solution): 20845
Starting UV absorbent: Wavelength ([1]; 30% methanol solution): 307 nm
Solubility of starting UV absorbent [2]: <0.1 wt %
SMILES: COc1ccc(C=CC(=O)O)cc1 [Starting UV absorbent of Prep.3, p-methoxycinnamic acid, reference compound]

Starting UV absorbent: Mol.Abs.Coef. (ε) ([1]; 30% methanol solution): 18661
Starting UV absorbent: Wavelength ([1]; 30% methanol solution): 279 nm
SMILES: O=C(O)C=Cc1ccccc1 [Starting UV absorbent of Prep.1, cinnamic acid, reference compound]

Amide-containing guanidine derivative: Mol.Abs.Coef. (ε) ([1]; 40% isopropyl alcohol solution): 24122
Amide-containing guanidine derivative: Wavelength ([1]; 40% isopropyl alcohol solution): 307 nm
SMILES: CCCCCCCCCCCCOc1ccc(C=CC(=O)NCCCCNC(=N)N)cc1.CCCCCCCCCCCCOc1ccc(C=CC(=O)NCCCCNC(=N)N)cc1.O=S(=O)(O)O [Compound 4, N-paradodecyloxycinnamoylamidobutylguanidine ½ sulfate]

Solubility of amide-containing guanidine derivative [2]: >7 wt %
SMILES: CCCCCCCCCCCCOc1ccc(C=CC(=O)NCCCCNC(=N)N)cc1.Cl [Compound 5, N-paradodecyloxycinnamoylamidobutylguanidine hydrochloride]

Starting UV absorbent: Mol.Abs.Coef. (ε) ([1]; 40% isopropyl alcohol solution): 21246
Starting UV absorbent: Wavelength ([1]; 40% isopropyl alcohol solution): 309 nm
Solubility of starting UV absorbent [2]: <0.01 wt %
SMILES: CCCCCCCCCCCCOc1ccc(C=CC(=O)O)cc1 [Starting UV absorbent of Prep.4, p-dodecyloxycinnamic acid, reference compound]

Amide-containing guanidine derivative: Mol.Abs.Coef. (ε) ([1]; 40% isopropyl alcohol solution): 25740
Amide-containing guanidine derivative: Wavelength ([1]; 40% isopropyl alcohol solution): 308 nm
SMILES: CCCCCCCCCCCCOc1ccc(/C=C/C(=O)N[C@@H](CCCNC(=N)N)C(=O)O)cc1 [Compound 6, N-paradodecyloxycinnamoylarginine]

Further lines, the compound ahead of its results:

SMILES: N=C(N)NCCCCNC(=O)C=Cc1ccccc1.N=C(N)NCCCCNC(=O)C=Cc1ccccc1.O=S(=O)(O)O [Compound 1, N-cinnamoylamidobutylguanidine ½ sulfate]
Amide-containing guanidine derivative: Mol.Abs.Coef. (ε) ([1]; 30% methanol solution): 21885
Amide-containing guanidine derivative: Wavelength ([1]; 30% methanol solution): 280 nm

SMILES: Cl.N=C(N)NCCCCNC(=O)C=Cc1ccccc1 [Compound 2, N-cinnamoylamidobutylguanidine hydrochloride]
Solubility of amide-containing guanidine derivative [2]: >15 wt %

SMILES: COc1ccc(C=CC(=O)N[C@@H](CCCNC(=N)N)C(=O)O)cc1 [Compound 3 (HCl salt)]
Solubility of amide-containing guanidine derivative [2]: >15 wt %

SMILES: COc1ccc(C=CC(=O)N[C@@H](CCCNC(=N)N)C(=O)O)cc1 [Compound 3, N-paramethoxycinnamoylarginine]
Amide-containing guanidine derivative: Mol.Abs.Coef. (ε) ([1]; 30% methanol solution): 24977
Amide-containing guanidine derivative: Wavelength ([1]; 30% methanol solution): 307 nm
